Measured values: PubChem BioAssay AID330 (DTP/NCI, 2004)
Where “and” joins values, the source holds several entries; their conditions need not be identical. Identical values can stand only once. Toxic doses and inconclusive results are not listed.

System: P388 leukemia ip, CD2F1 mice, survival T/C
Test: NCI In Vivo Anticancer Drug Screen. Data for tumor model P388 Leukemia (intraperitoneal) in CD2F1 (CDF1) mice
Details: endpoint: median survival time, higher = longer survival
Outline: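 Mice carrying the transplanted tumor received test compound or vehicle. Survival was recorded in each group, and the value is the treated-group measurement divided by that of the vehicle-treated control group.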

[1] = dose: 50.0 mg/kg/injection, schedule: Q01DX005 (ip), vehicle: saline with Tween-80
[2] = dose: 100.0 mg/kg/injection, schedule: Q01DX005 (ip), vehicle: saline with Tween-80
[3] = dose: 200.0 mg/kg/injection, schedule: Q01DX005 (ip), vehicle: saline with Tween-80
[4] = dose: 50.0 mg/kg/injection, schedule: Q01DX009 (ip), vehicle: Klucel (hydroxypropylcellulose) (HPC)
[5] = dose: 100.0 mg/kg/injection, schedule: Q01DX009 (ip), vehicle: Klucel (hydroxypropylcellulose) (HPC)
[6] = dose: 200.0 mg/kg/injection, schedule: Q01DX009 (ip), vehicle: Klucel (hydroxypropylcellulose) (HPC)
[7] = dose: 50.0 mg/kg/injection, schedule: Q01DX009 (ip), vehicle: saline with Tween-80
[8] = dose: 100.0 mg/kg/injection, schedule: Q01DX009 (ip), vehicle: saline with Tween-80
[9] = dose: 100.0 mg/kg/injection, schedule: Q04DX003 (ip), vehicle: saline with Tween-80
[10] = dose: 200.0 mg/kg/injection, schedule: Q04DX003 (ip), vehicle: saline with Tween-80
[11] = dose: 12.5 mg/kg/injection, schedule: Q01DX005 (ip), vehicle: Klucel (hydroxypropylcellulose) (HPC)
[12] = dose: 50.0 mg/kg/injection, schedule: Q01DX005 (ip), vehicle: Klucel (hydroxypropylcellulose) (HPC)
[13] = dose: 60.0 mg/kg/injection, schedule: Q01DX005 (ip), vehicle: Klucel (hydroxypropylcellulose) (HPC)
[14] = dose: 120.0 mg/kg/injection, schedule: Q01DX005 (ip), vehicle: Klucel (hydroxypropylcellulose) (HPC)

In the case of `CCCCCCCCCCC[N+]1([O-])CCOCC1`, the T/C (dose: 12.5 mg/kg/injection, schedule: Q01DX009 (ip), vehicle: saline) is reported as 101 % of control, the T/C (dose: 25.0 mg/kg/injection, schedule: Q01DX009 (ip), vehicle: saline) is reported as 99 % of control and the T/C (dose: 50.0 mg/kg/injection, schedule: Q01DX009 (ip), vehicle: saline) is reported as 99 % of control and 89 % of control.
For `COC1C(Cl)CC(/C(=C\C2CCCCC2)C(=O)O)CC1Cl` (centres undefined), the T/C [1] was 100 % of control, the T/C [2] was 103 % of control and the T/C [3] was 101 % of control.
For `CCOC(=O)c1ccc(NC(=O)c2cccc(Cl)c2)cc1`, the T/C [4] was 104 % of control, the T/C [5] was 100 % of control and the T/C [6] was 98 % of control.
`O=S(=O)(CCS(=O)(=O)c1ccccc1)c1ccccc1` was tested, and the T/C [7] was 92 % of control, the T/C [8] was 92 % of control and the T/C (dose: 200.0 mg/kg/injection, schedule: Q01DX009 (ip), vehicle: saline with Tween-80) was 89 % of control.
In the case of `Nc1cc2ccc3ncccc3c2c2cccnc12`, the T/C [9] is reported as 103 % of control, the T/C [10] is reported as 97 % of control and the T/C (dose: 400.0 mg/kg/injection, schedule: Q04DX003 (ip), vehicle: saline with Tween-80) is reported as 97 % of control.
In the case of `O=C1C=CC(=O)N1CC[P+](c1ccccc1)(c1ccccc1)c1ccccc1`, the T/C (dose: 0.78 mg/kg/injection, schedule: Q01DX009 (ip), vehicle: water) is reported as 118 % of control, the T/C (dose: 1.56 mg/kg/injection, schedule: Q01DX009 (ip), vehicle: water) is reported as 102 % of control and the T/C (dose: 3.13 mg/kg/injection, schedule: Q01DX009 (ip), vehicle: water) is reported as 106 % of control. The T/C (dose: 6.25 mg/kg/injection, schedule: Q01DX009 (ip), vehicle: water) was 105 % of control, the T/C (dose: 12.5 mg/kg/injection, schedule: Q01DX009 (ip), vehicle: water) was 112 % of control and the T/C (dose: 25.0 mg/kg/injection, schedule: Q01DX009 (ip), vehicle: water) was 112 % of control and 120 % of control.
With `C[C-]=NCCCl.C[C-]=O.[C-]#[O+].[C-]#[O+].[C-]#[O+].[C-]#[O+].[Re]` the T/C [11] was 102 % of control, the T/C (dose: 25.0 mg/kg/injection, schedule: Q01DX005 (ip), vehicle: Klucel (hydroxypropylcellulose) (HPC)) was 89 % of control and the T/C [12] was 93 % of control and 98 % of control.
In the case of `O=P(c1ccccc1)(c1ccccc1)c1ccccc1.O=P(c1ccccc1)(c1ccccc1)c1ccccc1.O=P(c1ccccc1)(c1ccccc1)c1ccccc1.O=P(c1ccccc1)(c1ccccc1)c1ccccc1.[Co+2].[O-][Cl+3]([O-])([O-])O`, the T/C [7] is reported as 96 % of control and the T/C [8] is reported as 99 % of control.
`O=C(O)C1CSC(c2ccccc2)N1` (centres undefined) was tested, and the T/C (dose: 12.5 mg/kg/injection, schedule: Q01DX009 (ip), vehicle: saline with Tween-80) was 100 % of control and 101 % of control, the T/C (dose: 25.0 mg/kg/injection, schedule: Q01DX009 (ip), vehicle: saline with Tween-80) was 102 % of control and 103 % of control and the T/C [7] was 100 % of control. For the same molecule, the T/C [8] was 100 % of control.
`CN(C=O)C(C(=O)Nc1cccc2c(OC(=O)C(N(C)C=O)(N(C)C=O)N(C)C=O)c(N=Nc3ccc(S(=O)(=O)Nc4nccs4)cc3)cc(N=Nc3ccc(S(=O)(=O)Nc4nccs4)cc3)c12)(N(C)C=O)N(C)C=O` (tested in a mixture with another compound) was tested, and the T/C [2] was 114 % of control, the T/C [3] was 115 % of control and the T/C (dose: 500.0 mg/kg/injection, schedule: Q01DX001 (ip), vehicle: saline with Tween-80) was 109 % of control. For the same molecule, the T/C (dose: 1000.0 mg/kg/injection, schedule: Q01DX001 (ip), vehicle: saline with Tween-80) was 105 % of control and the T/C (dose: 2000.0 mg/kg/injection, schedule: Q01DX001 (ip), vehicle: saline with Tween-80) was 113 % of control.
With `COc1ccc2c(c1)C(=O)C1(CC2)OC1c1cccnc1` (centres undefined) the T/C (dose: 12.5 mg/kg/injection, schedule: Q01DX009 (ip), vehicle: other) was 110 % of control, the T/C (dose: 25.0 mg/kg/injection, schedule: Q01DX009 (ip), vehicle: other) was 115 % of control and the T/C (dose: 50.0 mg/kg/injection, schedule: Q01DX009 (ip), vehicle: other) was 100 % of control and 117 % of control. The T/C (dose: 100.0 mg/kg/injection, schedule: Q01DX009 (ip), vehicle: other) was 115 % of control and 117 % of control, the T/C (dose: 200.0 mg/kg/injection, schedule: Q01DX009 (ip), vehicle: other) was 94 % of control and the T/C (dose: 400.0 mg/kg/injection, schedule: Q01DX009 (ip), vehicle: other) was 99 % of control.
`O=C1CSC(c2ccc(Cl)cc2)N1N1C(=O)CSC1c1ccc(Cl)cc1` (centres undefined) was tested, and the T/C [13] was 99 % of control, the T/C [14] was 91 % of control and the T/C (dose: 240.0 mg/kg/injection, schedule: Q01DX005 (ip), vehicle: Klucel (hydroxypropylcellulose) (HPC)) was 90 % of control.
With `CNN(C)P(=S)(Oc1ccccc1)N(C)NC` the T/C [1] was 101 % of control, the T/C [2] was 103 % of control and the T/C [3] was 102 % of control.
`CC(O)c1cc2c(cc1Br)OCO2` (centres undefined) was tested, and the T/C (dose: 100.0 mg/kg/injection, schedule: Q01DX001 (ip), vehicle: Klucel (hydroxypropylcellulose) (HPC)) was 105 % of control, the T/C (dose: 200.0 mg/kg/injection, schedule: Q01DX001 (ip), vehicle: Klucel (hydroxypropylcellulose) (HPC)) was 104 % of control and the T/C (dose: 400.0 mg/kg/injection, schedule: Q01DX001 (ip), vehicle: Klucel (hydroxypropylcellulose) (HPC)) was 104 % of control.
For `C/C(=C\N1CCN(c2ccc(Cl)cc2)C(C)C1)C(=O)c1ccccc1` (centres undefined), the T/C [9] was 94 % of control and the T/C [10] was 88 % of control.
`CS/C(=C1/C(=O)N(c2ccccc2)N=C1C)N1CC1` was tested, and the T/C (dose: 6.25 mg/kg/injection, schedule: Q04DX003 (ip), vehicle: Klucel (hydroxypropylcellulose) (HPC)) was 99 % of control, the T/C (dose: 12.5 mg/kg/injection, schedule: Q04DX003 (ip), vehicle: Klucel (hydroxypropylcellulose) (HPC)) was 100 % of control and the T/C (dose: 25.0 mg/kg/injection, schedule: Q04DX003 (ip), vehicle: Klucel (hydroxypropylcellulose) (HPC)) was 102 % of control and 109 % of control. For the same molecule, the T/C (dose: 50.0 mg/kg/injection, schedule: Q04DX003 (ip), vehicle: Klucel (hydroxypropylcellulose) (HPC)) was 90 % of control.
`CC1=C(CCCCCCCCCCCCCCC(C)O)C(=O)OC1=O` (centres undefined) was tested, and the T/C (dose: 1.56 mg/kg/injection, schedule: Q01DX005 (ip), vehicle: Klucel (hydroxypropylcellulose) (HPC)) was 108 % of control, the T/C (dose: 3.12 mg/kg/injection, schedule: Q01DX005 (ip), vehicle: Klucel (hydroxypropylcellulose) (HPC)) was 108 % of control and the T/C (dose: 6.25 mg/kg/injection, schedule: Q01DX005 (ip), vehicle: Klucel (hydroxypropylcellulose) (HPC)) was 99 % of control. For the same molecule, the T/C [11] was 99 % of control, the T/C [12] was 89 % of control and the T/C (dose: 100.0 mg/kg/injection, schedule: Q01DX005 (ip), vehicle: Klucel (hydroxypropylcellulose) (HPC)) was 92 % of control. For the same molecule, the T/C (dose: 200.0 mg/kg/injection, schedule: Q01DX005 (ip), vehicle: Klucel (hydroxypropylcellulose) (HPC)) was 101 % of control and the T/C (dose: 400.0 mg/kg/injection, schedule: Q01DX005 (ip), vehicle: Klucel (hydroxypropylcellulose) (HPC)) was 87 % of control.
`CC1COn2c1nc1ccccc1c2=O` (centres undefined) was tested, and the T/C [4] was 104 % of control, the T/C [5] was 103 % of control and the T/C [6] was 104 % of control.
With `Cc1[nH]c2ccc(N(C)C)cc2c(=O)c1CN(Cc1ccccc1)Cc1c(C)[nH]c2ccc(N(C)C)cc2c1=O` the T/C (dose: 7.5 mg/kg/injection, schedule: Q01DX005 (ip), vehicle: Klucel (hydroxypropylcellulose) (HPC)) was 94 % of control, the T/C (dose: 15.0 mg/kg/injection, schedule: Q01DX005 (ip), vehicle: Klucel (hydroxypropylcellulose) (HPC)) was 89 % of control and the T/C (dose: 30.0 mg/kg/injection, schedule: Q01DX005 (ip), vehicle: Klucel (hydroxypropylcellulose) (HPC)) was 86 % of control.
For `C1=C(c2ccccc2)SC(N2CCCCC2)S1` (centres undefined), the T/C (dose: 12.5 mg/kg/injection, schedule: Q01DX009 (ip), vehicle: distilled water + Tween-80) was 99 % of control, the T/C (dose: 25.0 mg/kg/injection, schedule: Q01DX009 (ip), vehicle: distilled water + Tween-80) was 99 % of control and the T/C (dose: 50.0 mg/kg/injection, schedule: Q01DX009 (ip), vehicle: distilled water + Tween-80) was 96 % of control. For the same molecule, the T/C (dose: 100.0 mg/kg/injection, schedule: Q01DX009 (ip), vehicle: distilled water + Tween-80) was 104 % of control and the T/C (dose: 200.0 mg/kg/injection, schedule: Q01DX009 (ip), vehicle: distilled water + Tween-80) was 112 % of control.
In the case of `COc1ccc(-n2c(C)c(COC(=O)NC(C)C)c(COC(=O)NC(C)C)c2C)cc1`, the T/C (dose: 20.0 mg/kg/injection, schedule: Q01DX005 (ip), vehicle: Klucel (hydroxypropylcellulose) (HPC)) is reported as 163 % of control, the T/C (dose: 40.0 mg/kg/injection, schedule: Q01DX005 (ip), vehicle: Klucel (hydroxypropylcellulose) (HPC)) is reported as 172 % of control and the T/C [13] is reported as 150 % of control and 186 % of control. For the same molecule, the T/C [14] was 181 % of control.
